From patent US20100160454A1, “ANTIMICROBIAL AGENTS, COMPOSITIONS AND PRODUCTS CONTAINING THE SAME, AND METHODS OF USING THE COMPOSITIONS AND PRODUCTS” (Eastman Chemical Company, priority 2008, published 2010)

Key:
Experiment in all cases: Microbiological challenge testing in BPW broth, graded subculture counts
Type in all cases: cell-based
[1] = tested on: Candida albicans Wild type; details: C. albicans
Method: The microorganisms in the table below were used in challenge tests. They were either ATCC (American Type Culture Collection) or “wild type” as indicated. Wild type organisms were problematic organisms previously isolated from chemical products.
All of the microorganisms were grown in Tryptose Soy Broth (TSB), DIFCO™ available from Becton, Dickinson and Company, containing 1% dextrose. Candida albicans and Aspergillus niger, were incubated at 22° C.+/−2° C. for at least 96 hours. All bacteria were incubated at 35° C.+/−2° C. in a humidified incubator for at least 96 hours.
Candida albicans and Aspergillus niger were also grown on Sabouraud Dextrose Agar (SABD) at 22° C. for 7 to 14 days or until full sporulation was achieved.
The following procedure was followed to determine the amount of each challenge material (inoculum broth) needed to produce a 10^8 CFU/mL challenge, which is equivalent to a final test-sample microbial concentration of 10^5 to 10^6 CFU/mL (CFU=colony forming units).
Using a sterile pipette, 1 mL of the growth from each TSB culture was transferred into tubes of 9 mL buffered water (pH 7.2 phosphate buffer) and mixed thoroughly. This was repeated to make serial 1:10 dilutions. Then, 0.1 mL of each sample and dilution was inoculated onto agar plates to produce the equivalent of a further 1:10 dilution. (C. albicans and A. niger were inoculated onto SABD and bacteria were inoculated onto Plate Count Agar (PCA), DIFCO™ available from Becton, Dickinson and Company.) (The normal volume plated for most samples was 0.1 mL. Some samples that could be very low in micro-organisms (high dilutions) were plated using 0.5 mL of inoculum, in order to produce reproducible counts.) The samples were distributed on the plates using the spread-plate technique. The spread-plate technique is carried out by spreading the sample over the entire plate surface using a sterile spreading rod while rotating the plate with a rotary auto-plater. After the inoculum was absorbed completely by the agar, each plate was inverted and incubated (fungi at 22° C.+/−2° C. and bacteria at 35° C.+/−2° C.).
After incubation for at least 48 hours, colonies that had developed on the agar plates were counted (CFU) and recorded with the corresponding dilution. If counting had to be delayed temporarily, plates were refrigerated, preferably no more than 24 hours, until they could be counted. The number of CFU/mL was determined by multiplying the plate count by the dilution factor of the plate counted.
Turbidity in Nepholemetric Turbidity Units (NTU) was measured for each serial dilution using the HF-Micro 100 Model Turbidimeter. For each microorganism, the plate counts were compared to the turbidity readings.
On the day of challenge, the Candida albicans inoculum broth was poured through nonabsorbent sterile gauze and centrifuged. The […] was then diluted with buffered water (pH 7.2 phosphate buffer) until the desired turbidity was reached. Using a hemocytometer, a determination was made whether the challenge contained the desired concentration. Dilutions were made through 1.0×10^8 and three SABD spread plates were inoculated with 0.1 mL of each dilution. The plates were incubated for at least 48 hours and challenge counts were confirmed.
Control substrates (“broth alone”) were prepared for each microorganism separately in triplicate by adding 13.5 mL of Buffered Peptone Water broth (BPW) containing 1% dextrose to each 20-mL glass tube, then adding 1.5 mL challenge material to produce a final concentration at time zero of 10^5 to 10^6 CFU/mL and a total volume of 15 mL.

[2] = tested on: Bacillus subtilis Wild type
Outline: (§1)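 Strains grown in TSB with 1% dextrose at 35 °C for ≥96 h. Inoculum added to BPW broth with 1% dextrose, with or without test material (w/v), to 10^5–10^6 CFU/mL at time zero. Counts by spread-plating serial 1:10 dilutions in pH 7.2 phosphate buffer on PCA, incubated at 35 °C for ≥48 h.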

[3] = tested on: Proteus vulgaris Wild type
Outline: as §1

[4] = tested on: Pseudomonas aeruginosa Wild type; details: P. aeruginosa
Outline: as §1

[5] = tested on: Staphylococcus epidermidis ATCC 12228
Outline: as §1

Compound: CC(O)CO (stereo not drawn) [PG, propylene glycol]
- Grade ([1]; 0.5% (wt/vol), 3 day): 5 (More than 10,000 colonies estimated (thus more than 100,000 CFU/mL))
- Grade ([1]; 0.5% (wt/vol), 14 day): 5 (More than 10,000 colonies estimated (thus more than 100,000 CFU/mL))
- Grade ([1]; 0.5% (wt/vol), 30 day): 5 (More than 10,000 colonies estimated (thus more than 100,000 CFU/mL))
- Grade ([1]; 1.25% (wt/vol), 3 day): 5 (More than 10,000 colonies estimated (thus more than 100,000 CFU/mL))
- Grade ([1]; 1.25% (wt/vol), 14 day): 5 (More than 10,000 colonies estimated (thus more than 100,000 CFU/mL))
- Grade ([1]; 1.25% (wt/vol), 30 day): 5 (More than 10,000 colonies estimated (thus more than 100,000 CFU/mL))
- Grade ([1]; 2.5% (wt/vol), 3 day): 4 (1000 to 10,000 colonies countable (thus 10,000 CFU/mL to 100,000 CFU/mL))
- Grade ([1]; 2.5% (wt/vol), 14 day): 4 (1000 to 10,000 colonies countable (thus 10,000 CFU/mL to 100,000 CFU/mL))
- Grade ([1]; 2.5% (wt/vol), 30 day): 4 (1000 to 10,000 colonies countable (thus 10,000 CFU/mL to 100,000 CFU/mL))
- Grade ([1]; 5.0% (wt/vol), 3 day): 3 (100 to 1000 colonies (thus 1000 to 10,000 CFU/mL))
- Grade ([1]; 5.0% (wt/vol), 14 day): 4 (1000 to 10,000 colonies countable (thus 10,000 CFU/mL to 100,000 CFU/mL))
- Grade ([1]; 5.0% (wt/vol), 30 day): 4 (1000 to 10,000 colonies countable (thus 10,000 CFU/mL to 100,000 CFU/mL))
- B. subtillis growth grade, 3 day ([2]; 0.5% weight/volume): 5 (More than 10,000 colonies estimated (thus more than 100,000 CFU/mL))
- B. subtillis growth grade, 14 day ([2]; 0.5% weight/volume): 5 (More than 10,000 colonies estimated (thus more than 100,000 CFU/mL))
- B. subtillis growth grade, 30 day ([2]; 0.5% weight/volume): 5 (More than 10,000 colonies estimated (thus more than 100,000 CFU/mL))
- B. subtillis growth grade, 3 day ([2]; 1.25% weight/volume): 5 (More than 10,000 colonies estimated (thus more than 100,000 CFU/mL))
- B. subtillis growth grade, 14 day ([2]; 1.25% weight/volume): 4 (1000 to 10,000 colonies countable (thus 10,000 CFU/mL to 100,000 CFU/mL))
- B. subtillis growth grade, 30 day ([2]; 1.25% weight/volume): 4 (1000 to 10,000 colonies countable (thus 10,000 CFU/mL to 100,000 CFU/mL))
- B. subtillis growth grade, 3 day ([2]; 2.5% weight/volume): 5 (More than 10,000 colonies estimated (thus more than 100,000 CFU/mL))
- B. subtillis growth grade, 14 day ([2]; 2.5% weight/volume): 4 (1000 to 10,000 colonies countable (thus 10,000 CFU/mL to 100,000 CFU/mL))
- B. subtillis growth grade, 30 day ([2]; 2.5% weight/volume): 4 (1000 to 10,000 colonies countable (thus 10,000 CFU/mL to 100,000 CFU/mL))
- B. subtillis growth grade, 3 day ([2]; 5.0% weight/volume): 5 (More than 10,000 colonies estimated (thus more than 100,000 CFU/mL))
- B. subtillis growth grade, 14 day ([2]; 5.0% weight/volume): 4 (1000 to 10,000 colonies countable (thus 10,000 CFU/mL to 100,000 CFU/mL))
- B. subtillis growth grade, 30 day ([2]; 5.0% weight/volume): 4 (1000 to 10,000 colonies countable (thus 10,000 CFU/mL to 100,000 CFU/mL))
- P. vulgaris growth grade, 3 day ([3]; 0.5% weight/volume): 4 (1000 to 10,000 colonies countable (thus 10,000 CFU/mL to 100,000 CFU/mL))
- P. vulgaris growth grade, 13 day ([3]; 0.5% weight/volume): 4 (1000 to 10,000 colonies countable (thus 10,000 CFU/mL to 100,000 CFU/mL))
- P. vulgaris growth grade, 30 day ([3]; 0.5% weight/volume): 4 (1000 to 10,000 colonies countable (thus 10,000 CFU/mL to 100,000 CFU/mL))
- P. vulgaris growth grade, 3 day ([3]; 1.25% weight/volume): 4 (1000 to 10,000 colonies countable (thus 10,000 CFU/mL to 100,000 CFU/mL))
- P. vulgaris growth grade, 13 day ([3]; 1.25% weight/volume): 4 (1000 to 10,000 colonies countable (thus 10,000 CFU/mL to 100,000 CFU/mL))
- P. vulgaris growth grade, 30 day ([3]; 1.25% weight/volume): 4 (1000 to 10,000 colonies countable (thus 10,000 CFU/mL to 100,000 CFU/mL))
- P. vulgaris growth grade, 3 day ([3]; 2.5% weight/volume): 4 (1000 to 10,000 colonies countable (thus 10,000 CFU/mL to 100,000 CFU/mL))
- P. vulgaris growth grade, 13 day ([3]; 2.5% weight/volume): 4 (1000 to 10,000 colonies countable (thus 10,000 CFU/mL to 100,000 CFU/mL))
- P. vulgaris growth grade, 30 day ([3]; 2.5% weight/volume): 4 (1000 to 10,000 colonies countable (thus 10,000 CFU/mL to 100,000 CFU/mL))
- P. vulgaris growth grade, 3 day ([3]; 5.0% weight/volume): 4 (1000 to 10,000 colonies countable (thus 10,000 CFU/mL to 100,000 CFU/mL))
- P. vulgaris growth grade, 13 day ([3]; 5.0% weight/volume): 4 (1000 to 10,000 colonies countable (thus 10,000 CFU/mL to 100,000 CFU/mL))
- P. vulgaris growth grade, 30 day ([3]; 5.0% weight/volume): 4 (1000 to 10,000 colonies countable (thus 10,000 CFU/mL to 100,000 CFU/mL))
- Grade ([4]; 0.5% (wt/vol), 3 day): 4 (1000 to 10,000 colonies countable (thus 10,000 CFU/mL to 100,000 CFU/mL))
- Grade ([4]; 0.5% (wt/vol), 13 day): 4 (1000 to 10,000 colonies countable (thus 10,000 CFU/mL to 100,000 CFU/mL))
- Grade ([4]; 0.5% (wt/vol), 30 day): 5 (More than 10,000 colonies estimated (thus more than 100,000 CFU/mL))
- Grade ([4]; 1.25% (wt/vol), 3 day): 4 (1000 to 10,000 colonies countable (thus 10,000 CFU/mL to 100,000 CFU/mL))
- Grade ([4]; 1.25% (wt/vol), 13 day): 4 (1000 to 10,000 colonies countable (thus 10,000 CFU/mL to 100,000 CFU/mL))
- Grade ([4]; 1.25% (wt/vol), 30 day): 4 (1000 to 10,000 colonies countable (thus 10,000 CFU/mL to 100,000 CFU/mL))
- Grade ([4]; 2.5% (wt/vol), 3 day): 4 (1000 to 10,000 colonies countable (thus 10,000 CFU/mL to 100,000 CFU/mL))
- Grade ([4]; 2.5% (wt/vol), 13 day): 4 (1000 to 10,000 colonies countable (thus 10,000 CFU/mL to 100,000 CFU/mL))
- Grade ([4]; 2.5% (wt/vol), 30 day): 4 (1000 to 10,000 colonies countable (thus 10,000 CFU/mL to 100,000 CFU/mL))
- Grade ([4]; 5.0% (wt/vol), 3 day): 4 (1000 to 10,000 colonies countable (thus 10,000 CFU/mL to 100,000 CFU/mL))
- Grade ([4]; 5.0% (wt/vol), 13 day): 4 (1000 to 10,000 colonies countable (thus 10,000 CFU/mL to 100,000 CFU/mL))
- Grade ([4]; 5.0% (wt/vol), 30 day): 4 (1000 to 10,000 colonies countable (thus 10,000 CFU/mL to 100,000 CFU/mL))
- S. epidermidis growth grade, 3 day ([5]; 0.5% weight/volume): 5 (More than 10,000 colonies estimated (thus more than 100,000 CFU/mL))
- S. epidermidis growth grade, 13 day ([5]; 0.5% weight/volume): 5 (More than 10,000 colonies estimated (thus more than 100,000 CFU/mL))
- S. epidermidis growth grade, 30 day ([5]; 0.5% weight/volume): 5 (More than 10,000 colonies estimated (thus more than 100,000 CFU/mL))
- S. epidermidis growth grade, 3 day ([5]; 1.25% weight/volume): 4 (1000 to 10,000 colonies countable (thus 10,000 CFU/mL to 100,000 CFU/mL))
- S. epidermidis growth grade, 13 day ([5]; 1.25% weight/volume): 4 (1000 to 10,000 colonies countable (thus 10,000 CFU/mL to 100,000 CFU/mL))
- S. epidermidis growth grade, 30 day ([5]; 1.25% weight/volume): 4 (1000 to 10,000 colonies countable (thus 10,000 CFU/mL to 100,000 CFU/mL))
- S. epidermidis growth grade, 3 day ([5]; 2.5% weight/volume): 4 (1000 to 10,000 colonies countable (thus 10,000 CFU/mL to 100,000 CFU/mL))
- S. epidermidis growth grade, 13 day ([5]; 2.5% weight/volume): 4 (1000 to 10,000 colonies countable (thus 10,000 CFU/mL to 100,000 CFU/mL))
- S. epidermidis growth grade, 30 day ([5]; 2.5% weight/volume): 4 (1000 to 10,000 colonies countable (thus 10,000 CFU/mL to 100,000 CFU/mL))
- S. epidermidis growth grade, 3 day ([5]; 5.0% weight/volume): 4 (1000 to 10,000 colonies countable (thus 10,000 CFU/mL to 100,000 CFU/mL))
- S. epidermidis growth grade, 13 day ([5]; 5.0% weight/volume): 4 (1000 to 10,000 colonies countable (thus 10,000 CFU/mL to 100,000 CFU/mL))
- S. epidermidis growth grade, 30 day ([5]; 5.0% weight/volume): 4 (1000 to 10,000 colonies countable (thus 10,000 CFU/mL to 100,000 CFU/mL))
